Where two headings read alike, the source gives them in different places.

The subject of assay [1] is human diffuse large B-cell lymphoma cells (Karpas 422 cell). The assay can be described thus: Karpas 422 cell proliferation, Calcein AM staining. The format is cell-based.
A further assay concerns the target Mutant type EZH2(Y641N) (Homo sapiens (Human), UniProt Q15910, Y641N). As to the kind of experiment: AlphaLISA, mutant type PRC2 complex EZH2(Y641N). It is filed as biochemical. As to conditions: read-out: Mutant type EZH2(Y641N) IC50 Nanomoles per Liter. Background: Bead proximity is the source of the signal in Alpha formats.
The target in a further assay is wild-type EZH2 (Homo sapiens (Human), UniProt Q15910). The assay can be described thus: radiometric assay, activity to wild-type EZH2 of PRC2.
The target in another assay is Mutant type EZH2(A677G) (Homo sapiens (Human), UniProt Q15910, A677G). The assay can be described thus: AlphaLISA, mutant type PRC2 complex EZH2(A677G). The format is biochemical.
The target of a further assay is Mutant type EZH2(Y641F) (Homo sapiens (Human), UniProt Q15910, Y641F). As to the kind of experiment: AlphaLISA, mutant type PRC2 complex EZH2(Y641F). As to conditions: read-out: Mutant type EZH2(Y641F) IC50 Nanomoles per Liter. It is filed as biochemical.
The subject of assay [2] is human diffuse large cell lymphoma B lymphocytes (Pfeiffer cell). The assay can be described thus: Pfeiffer cell proliferation, Calcein AM staining. The format is cell-based.
Text: The diffuse large cell lymphoma B lymphocytes (Pfeiffer cells) were collected and counted when growing well.
Where [3] appears, read: read-out: Wild-type EZH2 IC50 Nanomoles per Liter.
Where [4] appears, read: read-out: Mutant type EZH2(A677G) IC59 Nanomoles per Liter.
The mark [5] stands for this setting: Homo sapiens, KARPAS-422, data of 14th day, read-out: Karpas422 Proliferation IC50 Nanomoles per Liter.
[6] abbreviates: Homo sapiens, Pfeiffer, data of 14th day, read-out: Pfeiffer Proliferation IC50 Nanomoles per Liter.
[7] abbreviates: Homo sapiens, KARPAS-422, read-out: Karpas422 Proliferation IC50 Nanomoles per Liter (nM).
Setting [8] is: Homo sapiens, Pfeiffer, read-out: Pfeiffer Proliferation IC50 Nanomoles per Liter (nM).

Chain of wild-type EZH2 (Q15910 whole entry): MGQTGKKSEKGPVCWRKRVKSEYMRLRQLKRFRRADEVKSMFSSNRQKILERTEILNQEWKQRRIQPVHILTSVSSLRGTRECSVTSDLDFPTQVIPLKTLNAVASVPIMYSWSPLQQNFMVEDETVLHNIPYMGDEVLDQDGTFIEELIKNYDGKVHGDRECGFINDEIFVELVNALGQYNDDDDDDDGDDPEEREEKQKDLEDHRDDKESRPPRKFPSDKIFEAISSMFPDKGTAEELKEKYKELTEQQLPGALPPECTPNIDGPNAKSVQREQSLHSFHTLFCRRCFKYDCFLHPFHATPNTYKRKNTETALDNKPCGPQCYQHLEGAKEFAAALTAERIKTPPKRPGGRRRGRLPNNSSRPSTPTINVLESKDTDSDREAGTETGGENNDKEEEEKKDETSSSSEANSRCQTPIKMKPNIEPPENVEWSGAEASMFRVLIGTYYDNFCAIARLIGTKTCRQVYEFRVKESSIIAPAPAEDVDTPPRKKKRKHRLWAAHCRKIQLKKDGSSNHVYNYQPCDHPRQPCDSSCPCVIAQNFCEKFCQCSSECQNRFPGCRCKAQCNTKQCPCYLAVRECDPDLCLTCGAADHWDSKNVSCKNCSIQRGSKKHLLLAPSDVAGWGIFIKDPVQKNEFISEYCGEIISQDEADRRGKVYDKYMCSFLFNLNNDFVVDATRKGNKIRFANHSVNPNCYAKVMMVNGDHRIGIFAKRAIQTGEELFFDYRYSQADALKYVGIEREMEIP
Chain of wild-type EZH2 (O75530 whole entry partner): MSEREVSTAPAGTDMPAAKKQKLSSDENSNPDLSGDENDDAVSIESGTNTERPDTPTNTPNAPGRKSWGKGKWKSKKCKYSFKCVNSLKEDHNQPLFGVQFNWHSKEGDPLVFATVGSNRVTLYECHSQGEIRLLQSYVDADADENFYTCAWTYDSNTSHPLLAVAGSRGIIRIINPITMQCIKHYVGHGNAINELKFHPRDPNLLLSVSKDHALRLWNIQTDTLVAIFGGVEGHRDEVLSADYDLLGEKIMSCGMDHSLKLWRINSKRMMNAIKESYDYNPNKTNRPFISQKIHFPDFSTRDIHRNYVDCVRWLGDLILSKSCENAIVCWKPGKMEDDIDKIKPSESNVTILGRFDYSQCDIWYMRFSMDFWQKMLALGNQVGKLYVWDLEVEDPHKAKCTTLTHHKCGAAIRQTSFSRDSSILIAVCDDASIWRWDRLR
Chain of wild-type EZH2 (Q15022 whole entry partner): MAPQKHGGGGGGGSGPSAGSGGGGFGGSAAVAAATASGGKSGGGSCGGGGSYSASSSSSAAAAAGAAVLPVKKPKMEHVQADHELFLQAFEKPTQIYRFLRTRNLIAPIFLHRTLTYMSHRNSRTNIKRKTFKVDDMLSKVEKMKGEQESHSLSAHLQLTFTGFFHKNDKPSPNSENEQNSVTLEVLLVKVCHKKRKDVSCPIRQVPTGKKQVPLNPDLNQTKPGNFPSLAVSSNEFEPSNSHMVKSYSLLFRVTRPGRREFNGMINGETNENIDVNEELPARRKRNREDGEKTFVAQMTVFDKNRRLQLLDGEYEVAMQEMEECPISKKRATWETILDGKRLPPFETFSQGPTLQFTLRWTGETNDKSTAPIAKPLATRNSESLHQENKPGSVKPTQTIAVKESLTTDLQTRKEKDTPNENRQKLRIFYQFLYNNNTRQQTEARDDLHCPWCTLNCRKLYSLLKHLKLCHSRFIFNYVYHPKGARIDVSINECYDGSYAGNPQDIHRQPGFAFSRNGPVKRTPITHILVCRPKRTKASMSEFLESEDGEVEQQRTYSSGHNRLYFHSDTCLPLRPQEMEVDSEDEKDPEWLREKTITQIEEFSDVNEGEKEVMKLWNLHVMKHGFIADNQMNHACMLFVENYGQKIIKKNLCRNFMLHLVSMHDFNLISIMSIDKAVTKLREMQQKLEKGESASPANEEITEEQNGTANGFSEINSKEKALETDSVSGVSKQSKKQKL
Chain of Mutant type EZH2(A677G) (Q15910 whole entry A677G): as the sequence (Q15910 whole entry) above, with A677G counted along it
Chain of Mutant type EZH2(A677G) (O75530 whole entry partner): as the sequence (O75530 whole entry partner) above
Chain of Mutant type EZH2(A677G) (Q15022 whole entry partner): as the sequence (Q15022 whole entry partner) above
Chain of Mutant type EZH2(A677G) (Q09028 whole entry partner): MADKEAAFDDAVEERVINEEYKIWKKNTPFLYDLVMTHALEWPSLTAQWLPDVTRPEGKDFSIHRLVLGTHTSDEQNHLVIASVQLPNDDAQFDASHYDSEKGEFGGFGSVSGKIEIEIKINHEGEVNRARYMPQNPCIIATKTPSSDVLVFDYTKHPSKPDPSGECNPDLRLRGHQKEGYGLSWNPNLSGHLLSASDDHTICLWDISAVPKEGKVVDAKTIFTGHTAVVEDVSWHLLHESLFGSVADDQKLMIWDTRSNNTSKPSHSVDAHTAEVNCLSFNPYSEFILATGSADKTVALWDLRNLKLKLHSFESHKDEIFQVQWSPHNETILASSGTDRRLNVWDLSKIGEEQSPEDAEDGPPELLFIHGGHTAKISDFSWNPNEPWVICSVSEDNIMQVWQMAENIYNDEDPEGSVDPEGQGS
Chain of Mutant type EZH2(A677G) (Q6ZN18 whole entry partner): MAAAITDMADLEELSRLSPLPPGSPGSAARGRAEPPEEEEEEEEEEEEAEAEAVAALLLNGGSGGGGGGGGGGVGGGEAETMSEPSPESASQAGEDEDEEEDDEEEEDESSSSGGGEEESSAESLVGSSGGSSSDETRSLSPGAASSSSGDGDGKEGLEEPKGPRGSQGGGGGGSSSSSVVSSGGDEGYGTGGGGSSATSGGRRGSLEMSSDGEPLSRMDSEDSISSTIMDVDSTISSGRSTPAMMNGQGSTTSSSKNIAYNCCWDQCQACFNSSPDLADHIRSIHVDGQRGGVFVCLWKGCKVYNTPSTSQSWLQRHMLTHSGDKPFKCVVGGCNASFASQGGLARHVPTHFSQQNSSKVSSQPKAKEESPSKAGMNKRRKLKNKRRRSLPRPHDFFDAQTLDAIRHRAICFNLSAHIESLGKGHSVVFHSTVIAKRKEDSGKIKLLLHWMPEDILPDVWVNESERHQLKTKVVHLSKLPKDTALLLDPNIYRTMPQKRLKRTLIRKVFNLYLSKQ
Chain of Mutant type EZH2(Y641F) (Q15910 whole entry Y641F): as the sequence (Q15910 whole entry) above, with Y641F counted along it
Chain of Mutant type EZH2(Y641F) (O75530 whole entry partner): as the sequence (O75530 whole entry partner) above
Chain of Mutant type EZH2(Y641F) (Q15022 whole entry partner): as the sequence (Q15022 whole entry partner) above
Chain of Mutant type EZH2(Y641F) (Q09028 whole entry partner): as the sequence (Q09028 whole entry partner) above
Chain of Mutant type EZH2(Y641F) (Q6ZN18 whole entry partner): as the sequence (Q6ZN18 whole entry partner) above
Chain of Mutant type EZH2(Y641N) (Q15910 whole entry Y641N): as the sequence (Q15910 whole entry) above, with Y641N counted along it
Chain of Mutant type EZH2(Y641N) (O75530 whole entry partner): as the sequence (O75530 whole entry partner) above
Chain of Mutant type EZH2(Y641N) (Q15022 whole entry partner): as the sequence (Q15022 whole entry partner) above
Chain of Mutant type EZH2(Y641N) (Q09028 whole entry partner): as the sequence (Q09028 whole entry partner) above
Chain of Mutant type EZH2(Y641N) (Q6ZN18 whole entry partner): as the sequence (Q6ZN18 whole entry partner) above
Experimental for wild-type EZH2: 25 μL of reaction solution was transferred to a scintillation plate, which was incubated at room temperature for 1 hour (h) and washed with deionized water and 0.1% Tween 20 for three times. A PerkinElmer liquid scintillation/luminescence counter was used to read the value, and GraphPad Prism 5 was used to calculate the median inhibitory concentration (IC50) of the compounds.

Take `CCN(c1cc(-c2ccc3c(c2)C2(CCOCC2)C(=O)N3C)cc(C(=O)NCc2c(OC)cc(C)[nH]c2=O)c1C)C1CCN(CC(F)(F)F)CC1` [Example 123, 3-(Ethyl(1-(2,2,2-trifluoroethyl)piperidin-4-yl)amino)-N-((4-methoxy-6-methyl-2-oxo-1,2-dihydropyridin-3-yl)methyl)-2-methyl-5-(1-methyl-2-oxo-2′,3′,5′,6′-tetrahydrospiro[dihydroindole-3,4′-pyran]-5-yl)benzamide]: the IC50 in assay [1] (data of 14th day, read-out: Karpas422 Proliferation IC50 Nanomoles per Liter) was 3.23 nM; on Mutant type EZH2(Y641N), 0.52 nM; at wild-type EZH2 (setting [3]), 1.15 nM; on Mutant type EZH2(A677G) (setting [4]), 0.72 nM; at Mutant type EZH2(Y641F) it was 0.92 nM; in assay [2] (data of 14th day, read-out: Pfeiffer Proliferation IC50 Nanomoles per Liter), 2.84 nM.

As for `CCN(c1cc(-c2ccc3c(c2)NC(=O)C32CCNCC2)cc(C(=O)NCc2c(C)cc(C)[nH]c2=O)c1C)C1CCSCC1` [Example 97, N-((4,6-Dimethyl-2-oxo-1,2-dihydropyridin-3-yl)methyl)-3-(ethyl(tetrahydro-2H-thiapyran-4-yl)amino)-2-methyl-5-(2-oxospiro[dihydroindole-3,4′-piperidine]-6-yl)benzamide], the IC50 in assay [1] (setting [5]) was 2.7 nM; at Mutant type EZH2(Y641N), 0.37 nM; at wild-type EZH2 (setting [3]) it was 0.85 nM; at Mutant type EZH2(A677G) (setting [4]), 0.38 nM; on Mutant type EZH2(Y641F) it was 0.59 nM; in assay [2] (setting [6]) it was 1.53 nM.

As to `CCN(c1cc(-c2ccc3c(c2)NC(=O)C32CCOCC2)cc(C(=O)NCc2c(C)cc(C)[nH]c2=O)c1C)C1CCN(C)CC1` [Example 81, N-((4,6-dimethyl-2-oxo-1,2-dihydropyridin-3-yl)methyl)-3-(ethyl(1-methylpiperidin-4-yl)amino)-2-methyl-5-(2-oxo-2′,3′,5′,6′-tetrahydrospiro[dihydroindole-3,4′-pyran]-6-yl)benzamide], the IC50 in assay [1] (setting [5]) is 3.67 nM; at Mutant type EZH2(Y641N) it was 0.48 nM; on wild-type EZH2 (setting [3]), 1.37 nM; at Mutant type EZH2(A677G) (setting [4]), 0.63 nM; at Mutant type EZH2(Y641F), 0.89 nM; in assay [2] (setting [6]) it was 4.73 nM.

Consider `CCN(c1cc(-c2cnc3c(c2)NC(=O)C32CCOCC2)cc(C(=O)NCc2c(C)cc(C)[nH]c2=O)c1C)C1CCOCC1` [Example 101, N-((4,6-Dimethyl-2-oxo-1,2-dihydropyridin-3-yl)methyl)-3-(ethyl(tetrahydro-2H-pyran-4-yl)amino)-2-methyl-5-(2′-oxo-1′,2,2′,3,5,6-hexahydrospiro[pyran-4,3′-pyrrolo[3,2-b]pyridine]-6′-yl)benzamide], for which the IC50 in assay [1] (setting [5]) is 3.68 nM; at Mutant type EZH2(Y641N), 0.57 nM; at wild-type EZH2 (setting [3]) it was 1.16 nM; at Mutant type EZH2(A677G) (setting [4]), 0.82 nM; at Mutant type EZH2(Y641F) it was 0.95 nM; in assay [2] (setting [6]), 2.74 nM.

As to `CCN(c1cc(-c2ccc3c(c2)C2(CC=C(F)CC2)C(=O)N3)cc(C(=O)NCc2c(C)cc(C)[nH]c2=O)c1C)C1CCOCC1` (stereo not drawn) [Example 118, N-((4,6-dimethyl-2-carbonyl-1,2-dihydropyridin-3-yl)methyl)-3-(ethyl(tetrahydro-2H-pyran-4-yl)amino)-5-(4-fluoro-2′-carbonylspiro[cyclohexano-1,3′-dihydroindole]-3-ene-5′-yl)-2-methylbenzamide], the IC50 in assay [1] (setting [7]) is 1.68 nM; at Mutant type EZH2(Y641N), 0.32 nM; at wild-type EZH2, 0.91 nM; on Mutant type EZH2(A677G), 0.45 nM; at Mutant type EZH2(Y641F), 0.58 nM; in assay [2] (setting [8]), 1.05 nM.

On to `CCN(c1cc(-c2ccc3c(c2)NC(=O)C32CCC(=O)CC2)cc(C(=O)NCc2c(C)cc(C)[nH]c2=O)c1C)C1CCOCC1` [Example 92, N-((4,6-Dimethyl-2-oxo-1,2-dihydropyridin-3-yl)methyl)-5-(2′,4-dioxospiro[cyclohexane-1,3′-dihydroindole]-6′-yl)-3-(ethyl(tetrahydro-2H-pyran-4-yl)amino)-2-methylbenzamide], for which the IC50 was 2.83 nM in assay [1] (setting [5]); 0.37 nM on Mutant type EZH2(Y641N); 0.87 nM at wild-type EZH2 (setting [3]); 0.57 nM on Mutant type EZH2(A677G) (setting [4]); 0.68 nM at Mutant type EZH2(Y641F); 1.83 nM in assay [2] (setting [6]).

In the case of `CCN(c1cc(-c2ccc3c(c2)NC(=O)C32CCOCC2)cc(C(=O)NCc2c(OC)cc(C)[nH]c2=O)c1C)C1CCC(N(C)C)CC1` (stereo not drawn) [Example 100], the IC50 was 2.85 nM in assay [1] (setting [5]); 0.42 nM on Mutant type EZH2(Y641N); 1.05 nM on wild-type EZH2; 0.78 nM on Mutant type EZH2(A677G) (setting [4]); 0.79 nM at Mutant type EZH2(Y641F); 2.73 nM in assay [2] (setting [6]).

Turning to `CCN(c1cc(-c2ccc3c(c2)NC(=O)C32CCN(C(C)=O)CC2)cc(C(=O)NCc2c(C)cc(C)[nH]c2=O)c1C)C1CCOCC1` [Example 88], the IC50 in assay [1] (setting [5]) was 2.76 nM; on Mutant type EZH2(Y641N) it was 0.42 nM; on wild-type EZH2 it was 0.96 nM; at Mutant type EZH2(A677G) (setting [4]), 0.51 nM; at Mutant type EZH2(Y641F) it was 0.61 nM; in assay [2] (setting [6]), 1.56 nM.

With `CCN(c1cc(-c2ccc3c(c2)NC(=O)C32CCC(O)CC2)cc(C(=O)NCc2c(C)cc(C)[nH]c2=O)c1C)C1CCOCC1` (stereo not drawn) [Example 94, N-((4,6-dimethyl-2-oxo-1,2-dihydropyridin-3-yl)methyl)-3-(ethyl(tetrahydro-2H-pyran-4-yl)amino)-5-(4-hydroxy-2′-oxospiro[cyclohexane-1,3′-dihydroindole]-6′-yl)-2-methylbenzamide], the IC50 is 4.74 nM in assay [1] (setting [5]); 0.62 nM on Mutant type EZH2(Y641N); 1.31 nM on wild-type EZH2 (setting [3]); 0.77 nM at Mutant type EZH2(A677G) (setting [4]); 0.73 nM at Mutant type EZH2(Y641F); 3.83 nM in assay [2] (setting [6]).

For `CCN(c1cc(-c2ccc3c(c2)C2(CCC(F)CC2)C(=O)N3)cc(C(=O)NCc2c(C)cc(C)[nH]c2=O)c1C)C1CCOCC1` (stereo not drawn) [Example 119, 5-(4-Fluoro-2′-carbonylspiro[cyclohexano-1,3′-dihydroindole]-5′-yl)-N-((4,6-dimethyl-2-carbonyl-1,2-dihydropyridin-3-yl)methyl)-3-(ethyl(tetrahydro-2H-pyran-4-yl)amino)-2-methylbenzamide], the IC50 in assay [1] (setting [7]) was 4.15 nM; at Mutant type EZH2(Y641N), 0.63 nM; against wild-type EZH2 it was 0.98 nM; at Mutant type EZH2(A677G) it was 0.76 nM; at Mutant type EZH2(Y641F) it was 0.95 nM; in assay [2] (setting [8]), 3.52 nM.

Consider `CCN(c1cc(-c2ccc3c(c2)NC(=O)C32CCOCC2)cc(C(=O)NCc2c(C)cc(C)[nH]c2=O)c1C)C1CCC(N(C)C2COC2)CC1` (stereo not drawn) [Example 121, N-((4,6-dimethyl-2-oxo-1,2-dihydropyridin-3-yl)methyl)-3-(ethyl(4-(methyl(oxetan-3-yl)amino)cyclohexyl)amino)-2-methyl-5-(2-oxo-2′,3′,5′,6′-tetrahydrospiro[dihydroindole-3,4′-pyran]-6-yl)benzamide], for which the IC50 in assay [1] (setting [5]) is 3.54 nM; at Mutant type EZH2(Y641N) it was 0.53 nM; at wild-type EZH2 (setting [3]), 1.04 nM; at Mutant type EZH2(A677G) (setting [4]), 0.68 nM; on Mutant type EZH2(Y641F), 0.74 nM; in assay [2] (setting [6]) it was 2.36 nM.

On to `CCN(c1cc(-c2ccc3c(c2)NC(=O)C32CCOCC2)cc(C(=O)NCc2c(OC)cc(C)[nH]c2=O)c1C)C1CCC(N(C)CCOC)CC1` (stereo not drawn) [Example 120, 3-(Ethyl(4-((2-methoxyethyl)(methyl)amino)cyclohexyl)amino)-N-((4-methoxy-6-methyl-2-oxo-1,2-dihydropyridin-3-yl)methyl)-2-methyl-5-(2-oxo-2′,3′,5′,6′-tetrahydrospiro[dihydroindole-3,4′-pyran]-6-yl)benzamide], for which the IC50 is 4.47 nM in assay [1] (setting [5]); 0.48 nM on Mutant type EZH2(Y641N); 1.26 nM at wild-type EZH2 (setting [3]); 0.53 nM at Mutant type EZH2(A677G) (setting [4]); 0.68 nM at Mutant type EZH2(Y641F); 2.96 nM in assay [2] (setting [6]).
